{"source": "patent US20260235546A1", "about": "“Methods and Systems for Interrogating Electrochemical Sensors” (The Regents of the University of California, priority 2023, published 2026)", "key": {"[1]": {"test_system": "phenylalanine-detecting EAB sensor (methylene-blue-modified aptamer)", "assay": "FFT-EIS binding curve of phenylalanine-detecting EAB sensor in whole, freshly-collected rat's blood at 37° C", "experimental": "(§1) To functionalize the working electrode the disulfide bond was first reduced in the stock alkanethiol-and-methylene-blue modified aptamer by combining 14 μL of 10 mM tris (2-carboxyethyl) phosphine with 2 μL of 100 μM DNA for 1 h in the dark. The gold electrodes were electrochemically cleaned and roughened with Millipore water and followed by immersion for 1 h in 500 nM reduced DNA in PBS. The electrodes were then transferred to a 10 mM solution of 6-mercapto-1-hexanol in PBS and stored overnight before use.\nAll electrochemical measurements were performed using an Autolab PGStat128N. The potentiostat was configured in “high stability mode” with a current range of ±1 μA, which affects the filter characteristics. For FFT-EIS measurements, the multi-sin waveform was generated by a DG812 arbitrary waveform generator (Rigol Technologies) and fed into the potentiostat's external voltage input using a BNC connection. The voltage waveform consisted of a superposition of 18 sine waves at logarithmically spaced frequencies ranging from 1 Hz to 1 kHz. The amplitude and phase of each sinusoidal oscillation were optimized for maximum signal-to-noise as discussed in the supporting information of Example 7, and the summed waveform was scaled to have a peak-to-peak amplitude of 25 mV. The potentiostat's native software (NOVA) was used to set the DC bias—the formal potential of methylene blue, as measured by cyclic voltammetry—on top of the AC perturbation. Voltage and current were recorded at 70 kHz using an SDS1202X-E oscilloscope. […] Data recording and processing were controlled by a custom Python program. Further details on the chosen waveform and artefact correction are described in supporting information of Example 7 (FIG. 7, FIG. 9, FIG. 11).\nImpedance spectra were fitted to the equivalent circuit model using MEISP 3.0 after each experiment was complete. […]\nReference is made to FIG. 12. […] The endogenous concentration of phenylalanine in the blood (52 μM) was determined e using a fluorescent assay kit. […]"}, "[2]": {"assay": "FFT-EIS-interrogated EAB sensor in jugular vein, real-time phenylalanine concentration in fasted and non-fasted rats", "format": "in vivo, Sprague-Dawley rats", "experimental": "(§2) All in vivo experiments were performed on male Sprague-Dawley rats (4-5 months old). The rats weighed between 350-500 g and were pair-housed in a standard light cycle room (12:12 regular light cycle with lights on at 8 AM). They were allowed ad libitum access to food and water and the Institutional Animal Care and Use Committee (IACUC) of the University of California at Santa Barbara approved the experimental protocol which adhered to the guidelines given by the NIH Guide for Care and Use of Laboratory Animals.\nPrior to the measurement, the rats were anesthetized using 4% isofluorane in a Plexiglas anesthesia chamber. Anesthesia was then maintained via a nose cone for the entire duration of the experiment at a level of 2-3% isofluorane. The neck was shaved and dissected in order to surgically isolate the left and right jugular veins. After isolating the two jugular veins, each one was tied off using sterile 6-0 silk sutures. Prior to the measurement, the wires in the sensor were adjusted such that the counter and working electrode were exposed outside of the 20G catheter into the vein as previously described. A small incision was then made in each vein using spring-loaded microscissors that allowed us to insert the sensor-containing catheter into the right jugular vein and an infusion line into the left jugular vein. Both the sensor and drug infusion catheter were anchored in place using two sterile 6-0 silk sutures. 30 units of heparin were infused through the infusion line immediately after insertion of the sensor and prior to any recordings. To intravenously dose the rats at 30 mg/kg a precalculated volume of 0.05 M vancomycin solution was injected using a syringe pump.\nSpecifically, after calibrating a phenylalanine-detecting EAB sensor in vitro, FFT-EIS interrogation was used to measure the molecule's concentration in the jugular veins of anesthetized rats with 1.8 s resolution. Doing so, it was observed baseline phenylalanine concentrations of 41±10 μM (the latter reflects one standard deviation) in a fasted animal and 39±6 μM in a non-fasted animal, values in line with previous reports. Upon two intravenous infusions of additional phenylalanine, rapid rises to peak concentrations of 300-400 μM were observed, followed by rapid decays back to baseline in the fasted animal.\nReference is made to FIG. 6. Using FFT-EIS to interrogate phenylalanine-detecting EAB sensors this metabolite has been monitored in situ in the jugulars of live rats with 1.8 s resolution. Reference Is made to panel (A). A fasted animal was infused with two sequential doses of phenylalanine. In both cases, the concentration of free phenylalanine in the blood quickly decayed back to the pre-infusion baseline (41±10 μM, 31±9 μM, and 25±10 μM before injection, after the first injection, and after the final injection, respectively). Reference is made to Panel (B). In contrast, the return to the post-infusion baseline was slower in a non-fasted animal, which is consistent with previous reports regarding phenylalanine homeostasis. Here, the raw data (light points) are smoothed using a 13-s rolling average (darker trace). Concentration decay transients were fitted to a two compartment (i.e., biexponential) model (black traces)."}, "[3]": {"molecular_target": "vancomycin-detecting EAB sensor (methylene-blue-modified aptamer)", "assay": "FFT-EIS binding curve (ket vs concentration) of vancomycin-detecting EAB sensor in whole bovine blood at 37° C", "conditions": "± = estimated 95% confidence intervals, read-out: dissociation constant (KD), Hill-Langmuir isotherm fit of ket", "experimental": "as §1\nAll electrochemical measurements were performed using an Autolab PGStat128N. The potentiostat was configured in “high stability mode” with a current range of ±1 μA, which affects the filter characteristics. […] The potentiostat's native software (NOVA) was used to set the DC bias—the formal potential of methylene blue, as measured by cyclic voltammetry—on top of the AC perturbation. Voltage and current were recorded at 70 kHz using an SDS1202X-E oscilloscope. […]\nReference is made to FIG. 3. In panel (A) the vancomycin-detecting EAB sensor was immersed in whole bovine blood at 37° C. and challenged with increasing quantities of the target molecule. […]\nThe impedimetric properties of EAB sensors, which are sensitive to target concentration, can be rapidly measured using FFT-EIS to enable highly-time resolved molecular measurements. […]"}, "[4]": {"assay": "FFT-EIS-interrogated EAB sensor in jugular vein, real-time plasma vancomycin after intravenous infusion", "format": "in vivo, Sprague-Dawley rats", "conditions": "rat jugular vein", "experimental": "as §2\nPrior to the measurement, the rats were anesthetized using 4% isofluorane in a Plexiglas anesthesia chamber. […]\nAptamer-modified gold wire working electrodes were bundled with platinum counter and silver-silver chloride reference electrodes in a 20-gauge catheter (FIG. 4, panel A), and surgically inserted the resulting three-electrode sensor into the right jugular vein of an anesthetized rat. Full impedance spectra (containing 18 frequencies between 1 Hz and 1 kHz, FIG. 9) was then measured every 1.8 second for 2.5 hours. […]\nFFT-EIS interrogation of EAB sensors provides a highly-time-resolved window into molecular physiology and pharmacokinetics (FIG. 5, panel A). […] Prior to drug infusion, vancomycin concentrations were measured fluctuating tightly around zero (1.1±1.7 μM). […]"}, "[5]": {"assay": "FFT-EIS-interrogated lactate-detecting EAB sensor, real-time plasma lactate in a living rat", "format": "in vivo, Sprague-Dawley rats", "conditions": "about 1000 mg/kg sodium lactate intravenously", "experimental": "FFT-EIS can be used to interrogate in vivo EAB sensors to monitor plasma lactate concentrations in a live rat in real time (FIGS. 13A and 13B). Lactate is an important clinical biomarker for sepsis and hypoxia during anesthesia, and lactate levels are useful to monitor sport performances. FFT-EIS is used to characterize the lactate-detecting EAB sensor in undiluted blood held at about 37° C. by stepwise changing the lactate level and measuring the corresponding ket value (FIG. 13A). […] Lactate concentrations can be determined in real time in a living rat by measuring changes in ket when employing the lactate detecting EAB sensor (FIG. 13B). Stable concentrations were measured prior to intravenously infusing about 1000 mg/kg sodium lactate.\nThe lactate aptamer is modified with a six-carbon thiol and the redox reporter methylene blue. The aptamer was reduced for 1 h in a solution containing about 11.26 μM aptamer and 8.87 mM TCEP and subsequently diluted till 500 nM in a PBS buffer plus 2 mM MgCl2. The intravenous sensors were fed through 20-gauge catheters and used the in vitro sensors as is. To form the lactate-detecting EAB sensor, the aptamer was deposited on the gold electrode by immersing the electrode for 1 h in a 500 nM reduced lactate aptamer solution followed by overnight immersion in 10 mM 6-mercaptohexanol to form a self-assembled monolayer. […]"}, "[6]": {"conditions": "fasted animal, first injection, ± = 95% confidence intervals"}, "[7]": {"conditions": "fasted animal, second injection, ± = 95% confidence intervals"}}, "note": "Where “and” joins values, the source holds several entries; their conditions need not be identical. Equal entries are not always repeated.", "data": [{"smiles": "N[C@@H](Cc1ccccc1)C(=O)O", "note": "[phenylalanine]", "values": [{"measurement": "ket,0 (ket in the absence of phenylalanine)", "setting": "[1]; fitted", "value": 62.9, "unit": "s⁻¹"}, {"measurement": "ket,max (ket at saturating phenylalanine)", "setting": "[1]; fitted", "value": 225.8, "unit": "s⁻¹"}, {"measurement": "Kd", "setting": "[1]; read-out: dissociation constant KD, Langmuir isotherm fit of ket", "value": 6.89, "unit": "mM"}, {"measurement": "baseline concentration after the final injection", "setting": "[2]; fasted animal", "value": "25 ± 10", "unit": "µM"}, {"measurement": "baseline concentration after the first injection", "setting": "[2]; fasted animal", "value": "31 ± 9", "unit": "µM"}, {"measurement": "time constant τ1, biexponential decay", "setting": "[2]; [6]", "value": "0.2 ± 0.1", "unit": "min"}, {"measurement": "time constant τ2, biexponential decay", "setting": "[2]; [6]", "value": "3.8 ± 0.2", "unit": "min"}, {"measurement": "time constant τ1, biexponential decay", "setting": "[2]; [7]", "value": "1.7 ± 0.1", "unit": "min"}, {"measurement": "time constant τ2, biexponential decay", "setting": "[2]; [7]", "value": "20 ± 2", "unit": "min"}, {"measurement": "peak concentration after intravenous infusion", "setting": "[2]; fasted animal, two intravenous infusions", "value": "300 to 400", "unit": "µM"}, {"measurement": "baseline concentration before injection", "setting": "[2]; fasted animal, ± = one standard deviation", "value": "41 ± 10", "unit": "µM"}, {"measurement": "baseline concentration", "setting": "[2]; non-fasted animal", "value": "39 ± 6", "unit": "µM"}, {"measurement": "time constant T2, biexponential decay", "setting": "[2]; non-fasted animal", "value": "35 ± 7", "unit": "min"}, {"measurement": "time constant τ1, biexponential decay", "setting": "[2]; non-fasted animal", "value": "3.3 ± 0.1", "unit": "min"}]}, {"smiles": "CN[C@H](CC(C)C)C(=O)N[C@H]1C(=O)N[C@@H](CC(N)=O)C(=O)N[C@H]2C(=O)N[C@H]3C(=O)N[C@H](C(=O)N[C@H](C(=O)O)c4cc(O)cc(O)c4-c4cc3ccc4O)[C@H](O)c3ccc(c(Cl)c3)Oc3cc2cc(c3O[C@@H]2O[C@H](CO)[C@@H](O)[C@H](O)[C@H]2O[C@H]2C[C@](C)(N)[C@H](O)[C@H](C)O2)Oc2ccc(cc2Cl)[C@H]1O", "note": "[vancomycin]", "values": [{"measurement": "Kd", "setting": "[3]", "value": "0.144 ± 0.031", "unit": "mM"}, {"measurement": "time constant of monoexponential concentration decay", "setting": "[4]; after 30 mg/kg intravenous infusion, three separate animals, ± = 95% confidence intervals", "value": "33.1 ± 0.5 min and 37.3 ± 0.7 min and 47.4 ± 1.3 min"}, {"measurement": "measured concentration prior to drug infusion", "setting": "[4]; pre-infusion", "value": "1.1 ± 1.7", "unit": "µM"}]}, {"smiles": "CC(O)C(=O)O", "note": "(stereo not drawn) [lactate]", "values": [{"measurement": "plasma lactate level course after infusion", "setting": "[5]", "value": "gradually returned to the prior baseline"}]}]}
